According to ChEMBL document CHEMBL1141321, “Amphidinolides B6 and B7, cytotoxic macrolides from a symbiotic dinoflagellate Amphidinium species” (J Nat Prod, 2007):
Values after ≈ are worked out from the molar mass of the structure shown.

System: DG-75
Test: Cytotoxicity against human DG75 cells
Assay type: functional, cell-based

SMILES | IC50 [µg/mL]
C=C1/C=C(\C)[C@@H](C)C[C@H](O)CC(=O)[C@H](O)[C@@H](O)[C@H](C)C[C@H](C)OC(=O)[C@@H](C)[C@@H](O)CCCC[C@@H]2O[C@H]2C[C@H](C)C1 [AMPHIDINOLIDE B6] | 0.02 (≈ 0.0353 µM)
C=C1/C=C(\C)[C@@H](C)C[C@H](O)CC(=O)[C@H](O)[C@@H](O)[C@H](C)C[C@H](C)OC(=O)/C(C)=C/CC/C=C/[C@@H]2O[C@H]2C[C@H](C)C1 [AMPHIDINOLIDE B7] | 0.4 (≈ 0.732 µM)
C=C1/C=C(\C)[C@@H](C)C[C@H](O)CC(=O)[C@H](O)[C@@H](O)[C@H](C)C[C@H](CO)OC(=O)/C(C)=C/CC/C=C/[C@@H]2O[C@H]2C[C@H](C)C1 [AMPHIDINOLIDE H] | 0.001 (≈ 0.00178 µM)
